{
  "source": "paper PMC3298469",
  "about": "“A selective and potent CXCR3 antagonist SCH 546738 attenuates the development of autoimmune diseases and delays graft rejection” (BMC Immunology, 2012)",
  "origin": "cited, not measured here",
  "key": {"[1]": {"set-up": "method as in ref 44 = [44]; Medarex Announces Primary Endpoint Achieved in MDX-1100 Anti-IP-10 Antibody Phase 2 Trial for Rheumatoid Arthritis http://www.fiercebiotech.com/press-releases/medarex-announces-primary-endpoint-achiev", "conditions": "phase 2 clinical trial for RA; cited from earlier work"}, "mouse": {"test_system": "mouse", "set-up": "method as in ref 21 = [21]; Medina J Presented at the 29th National Medicinal Chemistry Symposium (Madison, Wisconsin), June 27-July 1 2004", "conditions": "mouse model of CIA; cited from earlier work"}, "rat": {"test_system": "rat", "set-up": "method as in ref 21 = [21]; Medina J Presented at the 29th National Medicinal Chemistry Symposium (Madison, Wisconsin), June 27-July 1 2004", "conditions": "rat model of CIA; cited from earlier work"}, "[2]": {"conditions": "Phase II clinical trials, halted; cited from earlier work"}, "EAE": {"test_system": "EAE", "set-up": "method as in PMID 20050195", "conditions": "by decreasing migration of inflammatory cells into the CNS; cited from earlier work"}, "cardiac allograft": {"test_system": "cardiac allograft", "conditions": "cited from earlier work"}},
  "note": "Where two headings read alike, the source gives them in different places.",
  "data": [
    {"compound": "MDX-1100: anti-IP-10 antibody", "values": [
      {"measurement": "clinical outcome", "setting": "[1]", "value": "efficacy"}
    ]},
    {"compound": "CCOc1ccc(-n2c([C@@H](C)N(Cc3cccnc3)C(=O)Cc3ccc(OC(F)(F)F)cc3)nc3ncccc3c2=O)cc1", "note": "[AMG487]", "values": [
      {"measurement": "effect in CIA", "setting": "mouse", "value": "reduced inflammation and cartilage damage"},
      {"measurement": "effect in CIA", "setting": "rat", "value": "reduced inflammation and cartilage damage"},
      {"measurement": "clinical outcome", "setting": "[2]", "value": "lack of efficacy"}
    ]},
    {"compound": "Cc1ccc(-c2ccc3c(c2)C=C(C(=O)Nc2ccc(C[N+](C)(C)C4CCOCC4)cc2)CCC3)cc1.[Cl-]", "note": "[TAK-779]", "values": [
      {"measurement": "effect on EAE", "setting": "EAE", "value": "reduce incidence and severity of EAE"},
      {"measurement": "effect on cardiac allograft vasculopathy", "setting": "cardiac allograft", "value": "attenuates cardiac allograft vasculopathy"}
    ]}
  ]
}
